Source: patent US20260217767A1, “NOVEL A4B7 THIOETHER PEPTIDE DIMER ANTAGONISTS” (Protagonist Therapeutics, Inc., priority 2014, published 2026)
*1 amine or outer side, *2 acyl side, *3 side chain or, on linkers, in order; H or OH if unused. Where a SMILES comes first, the peptide text is derived from it. Bridges are numbered along the chain shown (N, C = ends). [ ]: non-standard residue; d: D form. Phe(4-tBu) = CC(C)(C)c1ccc(C[C@H](N)C(=O)O)cc1; Bip = N[C@@H](Cc1ccc(-c2ccccc2)cc1)C(=O)O; NMeR = CN[C@@H](CCCNC(=N)N)C(=O)O; β3hE = N[C@@H](CCC(=O)O)CC(=O)O; X1 = O=C(c1ccccc1C[*:2])[*:1]; Pen = CC(C)(S)[C@H](N)C(=O)O

test system: CD4+/CD45RO+ memory T cells; experiment: PBMC Memory T Cell Adhesion Assay; format: cell-based, human; details: thioether monomer peptides, Table 6
Description: PBMC Memory T Cell Adhesion Assay
Fresh CD4+/CD45RO+ memory T cells were isolated from human peripheral blood mononuclear cell (PBMC) donors by Aragen Bioscience Inc. (Morgan Hill, CA). The assay plate was prepared using IgG Fc capture antibody (donkey anti human) immobilized at 500 ng/well in 50 mM sodium bicarbonate buffer, pH 9.5, ON, 4 C onto a Greiner Fluotrac plate (100 ul per well). The plate was rinsed two time with Blocking Buffer (25 mM Tris HCl, pH7.5, 150 mM NaCl, 1.5% BSA, 0.05% Tween), and blocked with Blocking Buffer for 2 hours at 37 C or 5 hours at RT using 200 ul per well. The Blocking Buffer was removed and either MAdCAM-1 or VCAM-1 at 400 ng/well in Blocking Buffer was added and the plate incubated overnight at 4 C (100 ul per well). The plate was washed two times with Blocking Buffer, and rinsed once with 200 ul Binding Media (DMEM phenol red free, 10 mM HEPES, 1×Na pyruvate, 1× Glutamine, and supplemented with 1 mM MnC12 prior to use). To prepare cells, approximately 25 million CD4+/CD45RO+ memory T cells were counted by trypan blue exclusion using a haemocytometer to determine viability and cell count. The cells were transferred to a 50 ml conical tube, and centrifuged at 1200 rpm for 10 minute. The media was aspirated and the cell pellet resuspended in 15 ml Binding Media. The cells were centrifuged again and resuspended in the appropriate amount of Binding Media to be used for assays (50 ul of cells per well at 2× the final density). To each well, and equal volume (50 ul) of test compound was added and the plate was incubated for 1.5 hours at 37 C, 5% CO2. Each well was rinsed 3× with 150 ul per well of Binding Media. […] The plate was incubated at 37 C, 5% CO2, for 45 minutes. The plate was protected from light by using black adhesive seals. Fluorescence intensity was measured using a Molecular Devices Gemini EM Fluorescent Plate Reader (Ex 485/Em530, Bottom Read, Reading Sensitivity=20). IC50 curves are generated using Graph Pad Prism and the curves analyzed using analyzed using a non-linear regression (four parameters) algorithm. The log (concentration) versus RFU (Ex485/Em530) was plotted to determine IC50 values.

Compound	IC50
CC(C)C[C@@H]1NC(=O)[C@H]([C@@H](C)O)NC(=O)[C@H](CC(=O)O)NC(=O)[C@H](CO)NC(=O)[C@H](CCCNC(=N)N)N(C)C(=O)c2ccccc2CSC(C)(C)[C@@H](C(=O)N[C@@H](Cc2ccc(-c3ccccc3)cc2)C(=O)N[C@@H](CCC(=O)O)CC(N)=O)NC1=O [compound 133] ([NMeR]SDTL[Pen][Bip][β3hE]-NH2; linker N-6 via X1)	100 to 1000 nM
CC(C)C[C@@H]1NC(=O)[C@H]([C@@H](C)O)NC(=O)[C@H](CC(=O)O)NC(=O)[C@H](CO)NC(=O)[C@H](CCCNC(=N)N)N(C)C(=O)c2ccccc2CSC(C)(C)[C@@H](C(=O)N[C@@H](Cc2c[nH]c3ccccc23)C(=O)N[C@H](CCC(=O)O)C(=O)N[C@@H](Cc2ccccc2)C(N)=O)NC1=O [compound 101] (HELM PEPTIDE1{[meR].S.D.T.L.[Pen].W.[dE].F.[am]}|CHEM1{[O=C(c1ccccc1C[*:2])[*:1]]}$PEPTIDE1,CHEM1,1:R1-1:R1|PEPTIDE1,CHEM1,6:R3-1:R2$$$V2.0)	100 to 1000 nM
CC(C)C[C@@H]1NC(=O)[C@H]([C@@H](C)O)NC(=O)[C@H](CC(=O)O)NC(=O)[C@H](CO)NC(=O)[C@H](CCCNC(=N)N)N(C)C(=O)c2ccccc2CSC(C)(C)[C@@H](C(=O)N[C@@H](Cc2ccc(C(C)(C)C)cc2)C(=O)N[C@@H](CCC(=O)O)CC(N)=O)NC1=O [compound 134] ([NMeR]SDTL[Pen][Phe(4-tBu)][β3hE]-NH2; linker N-6 via X1)	25 to 100 nM
